For one experiment, the system named is Human osteoblasts. In words: ALP activity determination in human osteoblasts. The note with it: antibodies 100 ng/mL or 1 ng/mL; culture for 5 or 6 days. It is filed as cell-based. As to the method: Seven days after differentiation, the culture supernatant was removed from each plate and the cells were fixed with an acetone/ethanol solution. The ALP activity was determined using p-nitrophenyl phosphate as a substrate. Specifically, a carbonate buffer (5 mM MgCl2, 50 mM NaHCO3) containing p-nitrophenyl phosphate (Nacalai) (1 mg/mL) was added to each well (100 μL/well), followed by incubation at 37° C. Then, the OD value at 405 nm was determined with the use of a microplate reader (BMG Labtech) for each well.
The reagents such as anti-RANKL polyclonal antibodies and anti-RANKL monoclonal antibodies used in this Example were the same as those used in Example 4. In addition, an anti-RANKL monoclonal antibody ((C): clone 12A380) (ALEXIS), human OPGFc, and human RANKFc (R&D)) were used. ALP activity determination was carried out as in Example 1. All of the above antibodies are antibodies against mouse RANKL.
Human osteoblasts were seeded on a 96-well plate (3.1×10^3/well) and a 48-well plate (7.65×10^3/well). After cell adhesion had taken place, differentiation was carried out using a medium containing 5 mM β-glycerophosphoric acid. The antibodies were added (100 ng/mL or 1 ng/mL) upon differentiation. Culture was carried out for 5 or 6 days, followed by ALP activity determination.

The next experiment concerns MAP kinase p38. In words: Western blotting of p38 phosphorylation in MC3T3-E1 cells. The conditions noted are these: 200 μM peptide D. It counts as cell-based, mouse. As to the method:
MC3T3-E1 cells mixed with 10% FBS+αMEM (SIGMA) were seeded on a 6-well plate (7.5×10^4 cells/well). […] The medium was removed at the respective time points shown in the relevant figures. PBS was added to the cells, and the cells were collected with a scraper (Falcon). A cell pellet was obtained via centrifugation at 1200 rpm for 5 min at 4° C. RIPA buffer (100 μL) was added to the collected pellet, for dissolution of the cellular membrane. Further, the resultant was centrifuged under conditions of 14500 rpm for 25 min at 4° C. The supernatant was collected as a cell extract. A portion of the cell extract was used for quantification of the protein concentration with the use of a BCA protein assay kit (PIERCE). For SDS-PAGE, a sample buffer in an amount that was ¼ that of the cell extract (Fermentas) was added thereto, followed by heating at 95° C. for 5 min. The prepared sample was applied in an amount of 7.5 or 10 μg to 10% polyacrylamide gel (BioRad), followed by electrophoresis at 170 V for 1 hour. After electrophoresis, the electrophoresed sample was transferred to a PVDF membrane (Millipore) at 80 mA for 40 min. The membrane was shaken in a blocking solution (Nacalai) at room temperature for 1 hour and then a primary antibody was added thereto, followed by shaking at room temperature for 1 hour at 4° C. for 12 hours. […]
(A western blot detects proteins with antibodies after separation by electrophoresis.)

For experiment [1], the system named is RANKL knock-down MC3T3-E1 cells. The experiment can be described thus: ALP activity in RANKL knock-down MC3T3-E1 cells. It counts as cell-based, mouse. The conditions noted are these: KD1 and KD2; 200 μM peptide D or 200 ng/ml BMP-2; 5 days.
The next experiment concerns mouse tibia. In words: RT-PCR of osteogenesis markers in tibia of mice given peptide D. The conditions noted are these: peptide D acetate 10 mg/kg s.c. three times daily for 5 days. It counts as in vivo. As to the method:
Synthetic peptide D subjected to substitution with an acetate was used in this experiment. The synthetic peptide D was dissolved in PBS at a concentration of 1 mg/mL. PBS was administered to a control group.
Subcutaneous administration of synthetic peptide D in the form of acetate was carried out in a dose of 10 mg/kg at 8:00, 14:00, and 20:00 (three times daily) for 5 days. PBS was administered to the control group. Mice were dissected 12 hour after the completion of administration for 5 days and subjected to exsanguination. Thereafter, the femur and the tibia were collected from each mouse. The whole blood of each mouse was left at room temperature for 1 hour and then centrifuged under conditions of 5000 rpm and 4° C. for 5 min. The serum was collected in a new tube. The femur and the tibia of each mouse were fixed with cold 70% ethanol. Muscles and the like were carefully removed from each tibia. Then, each tibia was washed with PBS and cut into 1-mm fragments with scissors, followed by freezing with liquid nitrogen. […]
After cDNA synthesis, as in the case of Example 23, PCR was performed using primers specific to mouse alkaline phosphatase (mALP), mouse type I collagen αI chain (mCollagen αI), and mouse osteocalcin (mOC). […] The obtained images were analyzed with a CSAnalyzer and standardized based on the GAPDH expression levels. […]

For the next experiment, the target named is T1, RANKL (Homo sapiens, UniProt O14788).
T1 sequence (O14788 140-317 limits assumed): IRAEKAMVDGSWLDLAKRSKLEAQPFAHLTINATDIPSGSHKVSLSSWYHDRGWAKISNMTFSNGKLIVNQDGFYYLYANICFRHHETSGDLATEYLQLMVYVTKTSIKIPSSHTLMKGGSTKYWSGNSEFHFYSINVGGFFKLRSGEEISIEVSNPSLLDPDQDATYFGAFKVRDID
The conditions noted are these: Aoki et al., J Clin Invest 116: 1525, 2006; cited from earlier work.

These results are taken from patent publication US20100260680A1, “NOVEL BONE MASS INCREASING AGENT” (ORIENTAL YEAST CO., LTD., priority 2007, published 2010).

Bridges are numbered along the chain shown (N, C = ends). Where no end group is shown, it is not given here.

Take “peptide D: cyclic peptide of SEQ ID NO: 7, 9 amino acids, two cysteine residues bound via a disulfide bond; binds to RANKL (YCWSQYLCY; disulfide 2-8 (inferred))”: the ALP activity entry with Human osteoblasts is “significant increase in ALP activity”. Moreover, the p38 phosphorylation result is “significant p38 phosphorylation” in the experiment on MAP kinase p38 (12 hours after the addition) and “no significant changes” in the experiment with MAP kinase p38 (within a short period of time after the addition). The “ALP activity enhancement under RANKL knockdown” value in experiment [1] is “significantly reduced”. In addition, the “expression levels of mALP, mCollagen αI and mOC in tibia” value in the experiment with mouse tibia is “increase in the expression level of each factor”. The “binding to RANKL” value with RANKL is “binds to RANKL”.
